Values after ≈ are worked out from the molar mass of the structure shown. Like-named read-outs stand apart in the source and are kept apart here.
What was measured:
Enterobacter aerogenes = assay: MIC in nutrient agar, Enterobacter aerogenes; assay type: cell-based, Enterobacter aerogenes (ATCC 13048); settings: Klebsiella aerogenes, Ea, 30° C., 48 hours, read-out: Minimum Inhibitory Concentration (MIC)
Protocol: (§1) The minimum inhibitory concentration (MIC) for the compounds listed in Table I is determined for bacteria, using nutrient agar, and 7 yeast and fungi, using malt yeast agar. A one percent solution of the test compound is prepared in a mixture of acetone and water.
(§2) Nutrient agar is prepared at pH 6.8, representing a neutral medium, and at pH 8.2, representing an alkaline medium. The nutrient agars are prepared by adding 23 g of nutrient agar to one-liter of deionized water. In addition, the alkaline medium is prepared by adjusting a 0.04M solution of N-(tris-(hydroxymethyl)methyl)glycine buffered deionized water with concentrated sodium hydroxide to a pH of 8.5.
(§3) The test tubes containing the agar are cooled in a water bath until the temperature of the agar is 48° C. Then, an appropriate amount of the one percent solution of the test compound is added (except in the controls where no compound is added) to the respective test tubes so that the final concentrations are 500, 250, 100, 50, 25, 10, 2.5, 1.0 and zero parts per million of the test compound in the agar, thus having a known concentration of test compound dispersed therein. The contents of the test tubes are then transferred to respective petri plates. After drying for 24 hours, the petri plates containing nutrient agar are inoculated with bacteria and those containing malt yeast agar are inoculated with yeast and fungi.
(§4) The inoculation with bacteria is accomplished by using the following procedure. Twenty-four hour-cultures of each of the bacteria are prepared by incubating the respective bacteria in tubes containing nutrient broth for 24 hours at 30° C. in a shaker. Dilutions of each of the 24 hour-cultures are made so that nine separate suspensions (one for each of the nine test bacteria) are made, each containing 10^8 colony forming units (CFU) per mL of suspension of a particular bacteria. Aliquots of 0.3 mL of each of the bacterial suspensions are used to fill the individual wells of Steer's Replicator. For each microbial suspension, 0.3 mL was used to fill three wells (i.e., three wells of 0.3 mL each) so that for the nine different bacteria, 27 wells are filled. The Steer's Replicator is then used to inoculate both the neutral and alkaline pH nutrient agar petri plates.
(§5) The inoculated petri plates are incubated at 30° C. for 48 hours and then read to determine if the test compound which is incorporated into the agar prevented growth of the respective bacteria.
(§6) Table II lists the bacteria, yeast and fungi used in the MIC test described above along with their respective American Type Culture Collection (ATCC) identification numbers.
(§7) In Tables III and IV, the MIC values of the compounds described in Table I as compared to the MIC of a standard commercial preservative (with 1-(3-chloroalkyl)-3,5,7-triaza-1-azoniaadamantane chloride as the active agent and referred to in Tables III and IV as "STANDARD I") are set forth for the bacteria organisms and yeast/fungi organisms which are listed in Table II.

[1] = tested on: Pseudomonas aeruginosa (PRD-10); assay: MIC in nutrient agar, Pseudomonas aeruginosa (PRD-10); assay type: cell-based, Pseudomonas aeruginosa (ATCC 15442); settings: PRD, 48 hours, read-out: Minimum Inhibitory Concentration (MIC)
Protocol: as §1, §2, §3, §4, §5, §6, §7

Pseudomonas aeruginosa = assay: MIC in nutrient agar, Pseudomonas aeruginosa (Pa); assay type: cell-based, Pseudomonas aeruginosa (ATCC 10145); settings: Pa, 48 hours, read-out: Minimum Inhibitory Concentration (MIC)
Protocol: as §1, §2, §3, §4, §5, §6, §7

Staphylococcus aureus = assay: MIC in nutrient agar, Staphylococcus aureus; assay type: cell-based, Staphylococcus aureus (ATCC 6538); settings: Sa, 48 hours, read-out: Minimum Inhibitory Concentration (MIC)
Protocol: as §1, §2, §3, §4, §5, §6, §7

Aspergillus niger = assay: MIC in malt yeast agar, Aspergillus niger; assay type: cell-based, Aspergillus niger (ATCC 16404); settings: An; malt yeast agar; 30° C.; 72 hours for fungi; read-out: Minimum Inhibitory Concentration (MIC)
Protocol: as §1
(§8) Malt yeast agar is prepared by adding 3 g yeast extract and 45 g malt agar per liter of deionized water. The specific agar is dispensed in 30 mL aliquots into 25×200 mm test tubes, capped and autoclaved for 15 minutes at 115° C.
as §3
(§9) The inoculation with the yeast and fungi is accomplished as follows. Cultures of yeast and fungi are incubated for seven days on malt yeast agar at 30° C. These cultures are used to prepare suspensions by the following procedure. A suspension of each organism is prepared by adding 10 mL of sterile saline and 10 microliters of octylphenoxy polyethoxy ethanol to the agar slant of yeast or fungi. The sterile saline/octylphenoxy polyethoxy ethanol solution is then agitated with a sterile swab to suspend the microorganism grown on the slant. Each resulting suspension is diluted into sterile saline (1 part suspension: 9 parts sterile saline). Aliquots of these dilutions are placed in individual wells of Steer's Replicator and petri plates inoculated as previously described. The petri plates are incubated at 30° C. and read after 48 hours for yeast and 72 hours for fungi.
as §6, §7

Saccharomyces cerevisiae = assay: MIC in malt yeast agar, Saccharomyces cerevisiae; assay type: cell-based, Saccharomyces cerevisiae (ATCC 4105); settings: Sc, malt yeast agar, 30° C., 48 hours for yeast, read-out: Minimum Inhibitory Concentration (MIC)
Protocol: as §1, §8, §3, §9, §6, §7

marine organisms = assay: Marine antifouling test on coated panels; settings: scale 10 (completely free of marine organism growth) to 0 (completely covered)
Protocol: Test panels are prepared from clear, rigid polyvinyl chloride film that is 0.381×10^-3 m thick and has one textured surface. The test panels are 0.1524 m by 0.1524 m squares that have 0.00635 m holes punched at corners on 0.127 m centers. A 0.102 square template, with a 0.067 m diameter hole at the center, is attached to the center of the textured surface of the test panels.
A candidate marine antifoulant compound (1.0 g) is stirred into a resinous latex binder (9.0 g). A portion of the compound/binder mixture (1.5 g, is added to the center of the test panel and uniformly spread over the circular area inside the template.
Water is added dropwise as needed to properly spread the compound/binder mixture. The template prevents the compound/binder mixture from spreading beyond the uncovered area. […] The template is then removed. The test panel is then allowed to dry for 8 to 12 hours at room temperature.
Two test panels are prepared for each candidate marine antifoulant compound. Two control test panels are also prepared by only treating with the resinous latex binder. One test panel of each candidate marine […] compound is attached over a white background to the topside of an exposure support apparatus. The second test panel is attached over a black background to the underside of the exposure support apparatus. The exposure support apparatus is placed horizontally 0.0254 m under a marine surface with the white background topside facing up.
After being removed from the exposure support apparatus, each test panel is inspected and rated for marine organism growth on both the treated and untreated areas of the test panel. The marine organisms present on the treated and untreated areas are noted. The presence of algae spores and bacterial slime are noted but not included in rating each test panel. The test panels are rated on a scale from 10 (representing completely free of marine organism growth) to 0 (representing completely covered with marine organism growth).
In addition, test panels were prepared using tributyl tin oxide, a known marine antifouling compound.

| MIC (Enterobacter aerogenes; pH 6.8) [µg/mL] | MIC (Enterobacter aerogenes; pH 8.2) [µg/mL] | MIC ([1]; pH 6.8, 30° C.) [µg/mL] | MIC ([1]; pH 8.2, 30° C.) [µg/mL] | MIC (Pseudomonas aeruginosa; pH 6.8, 30° C.) [µg/mL] | MIC (Pseudomonas aeruginosa; pH 8.2, 30° C.) [µg/mL] | MIC (Staphylococcus aureus; pH 6.8, 30° C.) [µg/mL] | MIC (Staphylococcus aureus; pH 8.2, 30° C.) [µg/mL] | MIC (Aspergillus niger) [µg/mL] | MIC (Saccharomyces cerevisiae) [µg/mL] | SMILES | Marine Antifouling Rating (marine organisms; 10 Week Test, Bottom Panel) | Marine Antifouling Rating (marine organisms; 10 Week Test, Top Panel) | Marine Antifouling Rating (marine organisms; 20 Week Test, Bottom Panel) | Marine Antifouling Rating (marine organisms; 20 Week Test, Top Panel) |
| --- | --- | --- | --- | --- | --- | --- | --- | --- | --- | --- | --- | --- | --- | --- |
| 25 (≈ 125 µM) | 100 (≈ 499 µM) | 25 (≈ 125 µM) | 250 (≈ 1250 µM) | 50 (≈ 250 µM) | 250 (≈ 1250 µM) | 25 (≈ 125 µM) | 100 (≈ 499 µM) | < 1 | 5 (≈ 25 µM) | N#CSc1nsnc1SC#N [Example 2, Bis(thiocyanato)-1,2,5-thiadiazole] | 9 | 9 | 7 | 2 |
| 25 (≈ 85.5 µM) | < 10 | 25 (≈ 85.5 µM) | 25 (≈ 85.5 µM) | < 10 | < 10 | < 10 | < 10 | < 2.5 | < 2.5 | N#CSCSc1nsnc1SCSC#N [Example 4, Bis(thiomethylthiocyanato)-1,2,5-thiadiazole] | 9 | 9 | 5 | 7 |

Source: US5491155A, “Substituted thiadiazoles, compositions containing them and their use as antimicrobial and marine antifouling agents” (The Dow Chemical Company, priority 1994, dated 1996)
